From patent US10479792B2, “Compounds” (GlaxoSmithKline Intellectual Property Development Limited, priority 2015, dated 2019) come the findings set out here.

In data set [1] the test system is Trypanosoma cruzi. The data set is described as follows: Trypanosoma cruzi intracellular assay (Assay 2). Format: cell-based. The settings on record: infected H9C2 rat cardiomyocytes, 72 h incubation, read-out: pEC50 value against Trypanosoma cruzi (converted). As to the method:
Compounds were dispensed into black 384-well assay plates (Greiner) by acoustic dispensing (LabCyte ECHO). For potency determinations, eleven-point, one in three dilution curves were generated, with a top concentration of 50 μM. H9C2 rat cardiomyocytes cells were dispensed in T225 tissue culture flasks and after 4 hours they were infected during 18 hours with T. cruzi trypomastigotes in the same T225 tissue culture flasks at a multiplicity of infection of 1. Next, any remaining free trypomastigotes were washed away with PBS and the infected H9C2 cells were harvested by trypsinisation. The infected H9C2 cells were then plated into 384-well plates containing the compounds to be tested, at 2500 cells per well in DMEM media with 2% FBS, 1% Penicillin/Streptomicin, 2 mM L-Glutamine, 1 mM Na Pyruvate and 25 mM HEPES. After 72 h incubation at 37° C. in presence of 5% CO2, the plates were fixed and stained with 4% formaldehyde and 2 μM Draq5 for 3 hours at room temperature. The plates were imaged on a Perkin Elmer Opera high-content imaging system using a 20× air objective. Images were analyzed using the Acapella building blocks system (Perkin Elmer). The image analysis algorithm first identified the H9C2 nuclei followed by demarcation of the cytoplasm and identification of intracellular amastigotes. This algorithm reported mean number of parasites per H9C2 cell, the percentage of infected H9C2 cells and the total number of H9C2 cells.

The subject of data set [2] is THP-1 cells. The data set is described as follows: Leishmania donovani intracellular assay (Assay 5), THP-1 cytotoxicity. The data set is classed as cell-based. The settings on record: human, 96 h incubation, read-out: cytotoxicity against THP-1 cells, pEC50 (converted). As to the method:
Assay 5. Leishmania donovani Intracellular Assay
Compounds were dispensed into black 384-well assay plates (Greiner) by acoustic dispensing (LabCyte ECHO). For potency determinations, eleven-point, one in three dilution curves were generated, with a top concentration of 50 μM. THP-1 human monocytes cells were dispensed in T225 tissue culture flasks and differentiated using 30 nM of PMA, after 24 hours they were infected overnight using Leishmania donovani expressing Green Fluorescent Protein (eGFP) amastigotes in the same T225 tissue culture flasks at a multiplicity of infection of 10. Next, any remaining free amastigotes were washed away with PBS and the infected THP-1 cells were harvested by trypsinisation. The infected cells were then plated into 384-well plates containing the compounds to be tested, at 3000 cells per well in RPMI media with 2% FBS and 25 mM Sodium bicarbonate. After 96 h incubation at 37° C. in presence of 5% CO2, the plates were fixed with 4% formaldehyde for 30 minutes, washed with PBS and stained with 0.1 mg/mL of DAPI for 30 minutes and washed again with PBS. The plates were imaged on a Perkin Elmer Opera high-content imaging system using a 20× air objective with two expositions, one for DAPI stain and other for eGFP. Images were analysed using the Acapella building blocks system (Perkin Elmer). The image analysis algorithm first identified the THP-1 nuclei followed by demarcation of the cytoplasm and identification of intracellular amastigotes. This algorithm reported mean number of parasites per THP-1 cell, the percentage of infected THP-1 cells and the total number of THP-1 cells.

Data set [3] relates to Trypanosoma brucei. The data set is described as follows: Trypanosoma brucei cell growth inhibition assay (Assay 3). The note with it: 69 h + 4 h resazurin, read-out: pEC50 value against Trypanosoma brucei (converted). The data set is classed as cell-based, T. b. brucei, BSF427, VSG118. As to the method: Assay 3. Trypanosoma brucei Cell Growth Inhibition Assay
Measurement of the ability of the compounds to inhibit trypanosome (T. b. brucei, BSF427, VSG118) cell growth was performed using a modification of the cell viability assay previously described by Raz et al. (Raz B.; Iten M.; Grether-Buhler Y.; Kaminski R.; Brun R. The Alamar Blue assay to determine drug sensitivity of African trypanosomes (T. b. rhodesiense and T. b. gambiense) in vitro. Acta Trop. 1997, 68, 139-147). Compounds were dissolved in DMSO at a top concentration of 10 mM and serially diluted in half log steps to achieve a range of final assay concentrations of 50 μM to 0.5 nM. Compound at each concentration (200-fold final) was added to clear 96-well tissue culture plates in a volume of 1 μL. […] Plates were then read on a BioTek flx800 fluorescent plate reader, and percentage inhibition was compared to the maximum and minimum assay controls. Concentration effect curves were fitted using nonlinear regression using XLFit 4.2 and EC50 values determined.
(Resazurin is reduced to fluorescent resorufin, in cell work by metabolically active cells.)

For the compound `O=C(Nc1ccc(F)c(-c2ccn3c(N4CCOCC4)cnc3n2)c1)N1CCCC1` [Example 4, N-(4-fluoro-3-(3-morpholinoimidazo[1,2-a]pyrimidin-7-yl)phenyl)pyrrolidine-1-carboxamide], the EC50 is 39.8 nM in data set [1] and 10 nM in data set [3]. Further, in data set [2], the EC50 at 96 h was greater than 50100 nM.
